# Results: patent US7855309B2, “Pesticide benzyloxy- and phenetyl-substituted phenyl-amidine derivatives” (Bayer CropScience AG, priority 2005, dated 2010)
# Test: logP by HPLC on reversed-phase column (EEC Directive 79/831 Annex V.A8)
# Type: physicochemical
# Settings: HPLC, C18, 40° C., 0.1% aqueous formic acid and acetonitrile
# Method: Temperature: 40° C.; Mobile phases: 0.1% aqueous formic acid and acetonitrile; linear gradient from 10% acetonitrile to 90% acetonitrile.
# Calibration was carried out using unbranched alkan-2-ones (comprising 3 to 16 carbon atoms) with known logP values (determination of the logP values by the retention times using linear interpolation between two successive alkanones).
row,Structure (SMILES),log P
1,Cc1cc(OC(C)c2ccc(F)cc2)c(C)cc1N=CN1CCCCC1 (racemic) [Compound 93],2.18
2,Cc1cc(OC(C)c2ccccc2Cl)c(C)cc1N=CN1CCCCC1 (racemic) [Compound 130],2.36
3,Cc1cc(OC(C)c2cccc(Cl)c2)c(C)cc1N=CN1CCCCC1 (racemic) [Compound 131],2.36
4,Cc1cc(OC(C)c2ccc(Cl)cc2)c(C)cc1N=CN1CCCCC1 (racemic) [Compound 132],2.36
5,CCN(C)C=Nc1cc(C)c(OCc2ccc(F)cc2)cc1C [Compound 2],1.99
6,CCN(C)C=Nc1cc(C)c(OCc2cc3c(cc2Cl)OCO3)cc1C [Compound 5],2.05
7,CCN(C)C=Nc1cc(C)c(OCc2ccc(C(C)(C)C)cc2)cc1C [Compound 8],2.67
8,CCN(C)C=Nc1cc(C)c(OCc2ccc(C#N)cc2)cc1C [Compound 10],1.7
9,CCN(C)C=Nc1cc(C)c(OCc2ccccc2F)cc1C [Compound 11],1.94
10,CCN(C)C=Nc1cc(C)c(OCc2cccc(C=NOC)c2)cc1C [Compound 12],2.07
11,CCN(C)C=Nc1cc(C)c(OCc2ccc(F)c(F)c2)cc1C [Compound 15],2.02
12,CCN(C)C=Nc1cc(C)c(OCc2cccc(OC(F)(F)F)c2)cc1C [Compound 17],2.33
13,CCN(C)C=Nc1cc(C)c(OCc2cc(C(F)(F)F)cc(C(F)(F)F)c2)cc1C [Compound 21],2.62
14,CCN(C)C=Nc1cc(C)c(OCc2ccc(F)c(OC)c2)cc1C [Compound 22],1.92
15,CCN(C)C=Nc1cc(C)c(OCc2ccc(OC(F)(F)F)cc2)cc1C [Compound 23],2.38
16,CCN(C)C=Nc1cc(C)c(OCc2ccc(OC(F)F)cc2)cc1C [Compound 24],2.06
17,CCN(C)C=Nc1cc(C)c(OCc2ccccc2OC(F)F)cc1C [Compound 26],2.03
18,CCN(C)C=Nc1cc(C)c(OCc2ccc3nsnc3c2)cc1C [Compound 27],1.86
19,CCN(C)C=Nc1cc(C)c(OCc2ccc(Cl)c(C(F)(F)F)c2)cc1C [Compound 28],2.47

row,Structure (SMILES),log P
1,CCN(C)C=Nc1cc(C)c(OCc2ccc(C)cc2)cc1C [Compound 32],2.1
2,CCN(C)C=Nc1cc(C)c(OCc2ccccc2Cl)cc1C [Compound 33],2.08
3,CCN(C)C=Nc1cc(C)c(OCc2ccccc2C(F)(F)F)cc1C [Compound 34],2.14
4,CCN(C)C=Nc1cc(C)c(CCc2cccc(Cl)c2)cc1C [Compound 36],2.2
5,CCN(C)C=Nc1cc(C)c(CCc2ccccc2Cl)cc1C [Compound 37],2.26
6,CCN(C)C=Nc1cc(C)c(CCc2ccccc2C)cc1C [Compound 38],2.38
7,CCN(C)C=Nc1cc(C)c(CCc2ccc(OC)cc2)cc1C [Compound 39],2.04
8,CCN(C)C=Nc1cc(C)c(CCc2ccc(Cl)cc2)cc1C [Compound 40],2.27
9,CCN(C)C=Nc1cc(C)c(CCc2ccc(C)cc2)cc1C [Compound 41],2.23
10,CCN(C)C=Nc1cc(C)c(CCc2ccc(F)cc2)cc1C [Compound 42],2.05
11,CCN(C)C=Nc1cc(C)c(CCc2cccc(C(F)(F)F)c2)cc1C [Compound 43],2.41
12,CCN(C)C=Nc1cc(C)c(CCc2ccccc2C(F)(F)F)cc1C [Compound 45],2.42
13,CCN(C)C=Nc1cc(C)c(CCc2ccc(C(F)(F)F)cc2)cc1C [Compound 46],2.45
14,CCN(C)C=Nc1cc(C)c(OCc2cc(C)c(C)cc2Cl)cc1C [Compound 47],2.42
15,CCN(C)C=Nc1cc(C)c(OCc2c(F)cccc2F)cc1C [Compound 48],1.94
16,C=Cc1cccc(COc2cc(C)c(N=CN(C)CC)cc2C)c1 [Compound 50],2.16
17,CCN(C)C=Nc1cc(C)c(OCc2cccc3nsnc23)cc1C [Compound 51],1.92
18,CCN(C)C=Nc1cc(C)c(OCc2ccc(C(=O)OC)cc2)cc1C [Compound 53],1.9
19,CCN(C)C=Nc1cc(C)c(OCc2cccc(C(=O)OC(C)(C)C)c2)cc1C [Compound 54],2.42

row,Structure (SMILES),log P
1,CCN(C)C=Nc1cc(C)c(OCc2ccc(Cl)cc2Cl)cc1C [Compound 55],2.33
2,CCN(C)C=Nc1cc(C)c(OCc2cccc(C)c2)cc1C [Compound 57],2.11
3,CCN(C)C=Nc1cc(C)c(OCc2ccccc2C#N)cc1C [Compound 58],1.78
4,CCN(C)C=Nc1cc(C)c(OCc2cc(F)ccc2F)cc1C [Compound 59],1.99
5,CCN(C)C=Nc1cc(C)c(OCc2cc(C)cc(C)c2)cc1C [Compound 60],2.26
6,CCN(C)C=Nc1cc(C)c(OCc2ccc3ccccc3c2)cc1C [Compound 62],2.29
7,CCN(C)C=Nc1cc(C)c(OCc2cc(OC)c(OC)cc2Cl)cc1C [Compound 63],1.99
8,CCN(C)C=Nc1cc(C)c(OCc2ccccc2C)cc1C [Compound 66],2.06
9,CCN(C)C=Nc1cc(C)c(OCc2ccccc2Br)cc1C [Compound 67],2.13
10,CCN(C)C=Nc1cc(C)c(OCc2ccc(Br)cc2)cc1C [Compound 70],2.21
11,CCN(C)C=Nc1cc(C)c(OCc2cccc(C)c2Cl)cc1C [Compound 71],2.29
12,CCN(C)C=Nc1cc(C)c(OCc2cccc(C#N)c2)cc1C [Compound 74],1.83
13,CCN(C)C=Nc1cc(C)c(OCc2ccc3c(c2)CCCC3)cc1C [Compound 75],2.55
14,CCN(C)C=Nc1cc(C)c(OCc2cccc3ccccc23)cc1C [Compound 76],2.45
15,CCN(C)C=Nc1cc(C)c(OCc2cccc(C)c2F)cc1C [Compound 77],2.16
16,CCN(C)C=Nc1cc(C)c(OCc2ccc(OC)cc2)cc1C [Compound 78],1.92
17,CCN(C)C=Nc1cc(C)c(OCc2ccc(OCc3ccccc3)cc2)cc1C [Compound 79],2.51
18,CCN(C)C=Nc1cc(C)c(OCc2cccc(F)c2)cc1C [Compound 80],1.99

# Same assay, conditions: reversed-phase HPLC column (C18), pH 2.3; read-out: log P (pH 2.3)
row,Structure (SMILES),chromatographic logP
1,CCN(C)/C=N/c1cc(C)c(/C=C/c2ccccc2F)cc1C (racemic) [Intermediate (VII-1)],2.11
2,"CCN(C)/C=N/c1cc(C)c(CCc2ccccc2F)cc1C [Compound 44, N-ethyl-N′-{4-[2-(2-fluorophenyl)ethyl]-2,5-dimethylphenyl}-N-methylimidoformamide]",2.23

# Same assay, conditions: reversed-phase HPLC column (C18); HPLC, C18, 40° C., 0.1% aqueous formic acid and acetonitrile; read-out: log P
row,Structure (SMILES),chromatographic logP
1,"CCN(C)/C=N/c1cc(C)c(CCc2ccccc2F)cc1C [Compound 44, N-ethyl-N′-{4-[2-(2-fluorophenyl)ethyl]-2,5-dimethylphenyl}-N-methylimidoformamide]",2.23
